Assay results from patent EP2276483B1, “SOLID FORMS COMPRISING (+)-2-[1-(3-ETHOXY-4-METHOXYPHENYL)-2-METHYLSULFONYLETHYL]-4-ACETYLAMINOISOINDOLINE-1,3-DIONE, COMPOSITIONS THEREOF, AND USES THEREOF” (CELGENE CORPORATION, priority 2008, dated 2009).

How the values were obtained:
[1] = tested on: patients with severe plaque-type psoriasis; type: in vivo, human
serum TNF-α = experiment: Mouse LPS-induced serum TNF-α inhibition; type: in vivo; conditions: po, read-out: Mouse LPS-induced serum TNF-α inhibition (ED50, mg/kg, p.o.)
Protocol: Compounds were tested in this animal model according to previously described methods (Corral et al., 1996, Mol. Med., 2:506-515). Mouse LPS-induced serum TNF-α inhibition (ED50, mg/kg, p.o.) = 0.05 for Compound A.

TNF-α = experiment: IL-1β-induced TNF-α production from human PBMC; type: cell-based; conditions: 50 ng/ml recombinant human IL-1β
Protocol: During the course of inflammatory diseases, TNF-α production is often stimulated by the cytokine 1L-1β, rather than by bacterially derived LPS. Compounds were tested for the ability to inhibit IL-1β-induced TNF-α production from human PBMC as described above for LPS-induced TNF-α production, except that the PBMC were isolated from source leukocyte units (Sera-Tec Biologicals, North Brunswick, NJ, USA) by centrifugation on Ficoll-Paque Plus (Amersham Pharmacia, Piscataway, NJ, USA), plated in 96-well tissue culture plates at 3 x 10^5 cells/well in RPMI-1640 medium (BioWhittaker, Walkersville, Maryland, USA) containing 10% heat-inactivated fetal bovine serum (Hyclone), 2 mM L-glutamine, 100 U/ml penicillin, and […] (complete medium), pretreated with compounds at 10, 2, 0.4, 0.08, 0.016, 0.0032, 0.00064, and 0 µM in duplicate at a final DMSO concentration of 0.1% at 37 °C in a humidified incubator at 5% CO2 for one hour, then stimulated with 50 ng/ml recombinant human IL-1β (Endogen) for 18 hours.

[2] = tested on: neutrophil adhesion to HUVEC; experiment: fMLF-induced neutrophil adhesion to HUVEC; type: cell-based; conditions: human neutrophils, 500 nM fMLF
Protocol: Human umbilical vein endothelial cells (HUVEC) were used as a substrate for neutrophil adhesion as previously described (Derian et al., 1995, J. Immunol., 154:308-317) with the following modifications. HUVEC cells were obtained from Anthrogenesis (Cedar Knolls, NJ, USA), and neutrophils were not treated with cytochalasin B. Cells were treated with compounds at 10, 1, 0.1, 0.01, 0.001, and 0 µM in a final DMSO concentration of 0.1% in duplicate for 10 minutes, stimulated with 500 nM fMLF for 30 minutes, and washed twice with PBS before measuring fluorescence on an FLX800 plate reader (Bio-Tek Instruments, Winooski, VT, USA). Table 2. Assay results

[3] = Nonresponder, 20 mg orally daily, signed change

## CCOc1cc(C(CS(C)(=O)=O)N2C(=O)c3cccc(NC(C)=O)c3C2=O)ccc1OC (single isomer, unassigned; (+)) [Compound A, (+)-2-[1-(3-ethoxy-4-methoxyphenyl)-2-methylsulfonylethyl]-4-acetylaminoisoindoline-1,3-dione]
[1]; 20 mg orally daily for 29 days
  treatment-related adverse event: headache: 26.3%
  treatment-related adverse event: nausea: 15.8%
[1]; 20 mg orally daily for 29 days, Day 29, 8 of the 15 patients with evaluable biopsies
  patients demonstrating a 20% reduction in epidermal skin thickness: 53.3%
[1]; 20 mg orally daily, Day 29, all 15 subjects with evaluable biopsies, p=0.015
  mean reduction of epidermal thickness: 20.5%
[1]; 20 mg p.o. QD for 29 days
  safety in subjects with severe plaque-type psoriasis: safe
[1]; 9 of the 17 evaluable patients, 29 days of treatment
  patients demonstrating improvement in the static Physician's Global Assessment (sPGA): 52.9%
[1]; 10 of the 17 evaluable patients, 29 days of treatment
  patients showing a reduction from baseline in psoriasis body surface area (BSA): 58.8%
[1]; Day 29, 3 patients of 19 enrolled
  patients showing a >50% reduction from baseline in total PASI score: 15.8%
[1]; Day 29, 14 of the 19 subjects enrolled
  subjects demonstrating improvement in their PASI: 73.7%
[1]; Day 29, of enrolled patients
  enrolled patients showing a reduction from baseline in psoriasis body surface area (BSA): 52.6%
  enrolled patients showing an improvement in their sPGA: 47.4%
[1]; [3]
  Percentage Reduction of Key Inflammatory Markers at Day 29: CD11c, Dermis: -21.19%
  Percentage Reduction of Key Inflammatory Markers at Day 29: CD11c, Epidermis: -2.54%
  Percentage Reduction of Key Inflammatory Markers at Day 29: CD83+, Dermis: +0.46%
  Percentage Reduction of Key Inflammatory Markers at Day 29: CD83+, Epidermis: -16.31%
  Percentage Reduction of Key Inflammatory Markers at Day 29: T-cells, Dermis: -17.34%
  Percentage Reduction of Key Inflammatory Markers at Day 29: T-cells, Epidermis: +8.74%
[1]; lesional skin after 29 days of treatment, RT-PCR, p=0.025
  reduction of mRNA expression of iNOS: 66.5%
Serum TNF-α
  ED50: 0.05 mg/kg
TNF-α
  IC50: 83 nM
[2]
  IC50: 150 nM
